As a reminder, the Ki is the dissociation constant of the complex between target and ligand, obtained from inhibition or displacement.

The text below walks through data of EP2970215B1, “PYRROLIDINE DERIVATIVES, PHARMACEUTICAL COMPOSITIONS CONTAINING THEM, AND THEIR USE IN THERAPY” (AbbVie Deutschland GmbH & Co. KG, priority 2013, dated 2014).

Molecules are shown by their SMILES.

For the first assay, the target named is T1, human GlyT1c transporter (Homo sapiens, UniProt P48067).
T1 construct: expressed in transfected cells; host or cells: CHO cells (recombinant; line hGlyT1c_5_CHO is named for the uptake assay)
T1 sequence (P48067 1-706): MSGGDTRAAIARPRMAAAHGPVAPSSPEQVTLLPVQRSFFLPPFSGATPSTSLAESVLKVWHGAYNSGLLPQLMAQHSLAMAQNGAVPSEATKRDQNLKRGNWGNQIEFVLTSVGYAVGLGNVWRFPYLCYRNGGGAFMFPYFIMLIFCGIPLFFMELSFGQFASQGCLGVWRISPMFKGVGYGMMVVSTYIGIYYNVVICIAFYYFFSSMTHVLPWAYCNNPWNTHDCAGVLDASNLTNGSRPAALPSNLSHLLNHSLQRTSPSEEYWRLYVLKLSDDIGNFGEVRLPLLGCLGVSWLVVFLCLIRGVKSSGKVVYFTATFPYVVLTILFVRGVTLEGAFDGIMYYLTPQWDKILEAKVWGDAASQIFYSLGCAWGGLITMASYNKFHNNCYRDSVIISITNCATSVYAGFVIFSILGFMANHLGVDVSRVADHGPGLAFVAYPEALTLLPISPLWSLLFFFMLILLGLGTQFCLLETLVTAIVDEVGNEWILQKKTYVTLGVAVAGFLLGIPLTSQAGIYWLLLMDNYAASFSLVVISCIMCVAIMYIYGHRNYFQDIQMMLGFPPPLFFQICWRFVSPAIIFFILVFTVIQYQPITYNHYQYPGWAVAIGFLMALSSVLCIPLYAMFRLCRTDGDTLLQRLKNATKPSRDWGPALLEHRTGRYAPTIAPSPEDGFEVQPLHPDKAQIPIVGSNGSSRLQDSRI
The assay is described as follows: Radioligand binding assay using recombinant CHO cell membranes expressing human GlyT1. As to conditions: radioligand binding to human GlyT1c transporter-expressing membranes. From the text:
2. Radioligand binding assays using recombinant CHO cell membranes expressing human GlyT1: […]
Regarding `Cn1cnc(S(=O)(=O)N2C[C@@H](Nc3ccc(F)c(F)c3F)[C@H](c3ccc(F)cc3)C2)c1` (relative stereo) [Example 166, trans-4-(4-fluorophenyl)-1-[(1-methyl-1H-imidazol-4-yl)sulfonyl]-N-(2,3,4-trifluorophenyl)pyrrolidin-3-amine], the Ki is at most 1 µM.

For `Cn1cnc(S(=O)(=O)N2C[C@H](Nc3cccc(C(C)(O)C(F)(F)F)c3)[C@@H](c3ccccc3)C2)c1` (stereo partly drawn) [Example 399, 1,1,1-trifluoro-2-[3-({(3R,4S)-1-[(1-methyl-1H-imidazol-4-yl)sulfonyl]-4-phenylpyrrolidin-3-yl}amino)phenyl]propan-2-ol], the Ki is at most 0.1 µM.

Take `N#Cc1ccccc1S(=O)(=O)N1C[C@@H](Nc2cc(C(F)(F)F)ccn2)[C@H](c2ccccc2)C1` (relative stereo) [Example 525, 2-{[trans-3-phenyl-4-{[4-(trifluoromethyl)pyridin-2-yl]amino}pyrrolidin-1-yl]sulfonyl}benzonitrile]: the inhibition constant Ki was at most 10 µM.

With `Cn1cnc(S(=O)(=O)N2C[C@@H](Nc3cccc(Cl)c3)[C@H](Oc3ccc(F)cc3)C2)c1` (relative stereo) [Example 378, Trans-N-(3-chlorophenyl)-4-(4-fluorophenoxy)-1-[(1-methyl-1H-imidazol-4-yl)sulfonyl]pyrrolidin-3-amine], the inhibitory constant (Ki) is at most 10 µM.

For the compound `Cn1cnc(S(=O)(=O)N2C[C@@H](Nc3ccccc3F)[C@H](c3ccc(F)cc3)C2)c1` (relative stereo) [Example 90, trans-N-(2-fluorophenyl)-4-(4-fluorophenyl)-1-[(1-methyl-1H-imidazol-4-yl)sulfonyl]pyrrolidin-3-amine], the inhibition constant (Ki) was at most 1 µM.

Turning to `Cn1cnc(S(=O)(=O)N2C[C@@H]([C@@H]3CCCOC3)[C@H](Nc3cccc(Oc4ccccc4)c3)C2)c1` (mixture of isomers) [Example 786, trans-1-[(1-methyl-1H-imidazol-4-yl)sulfonyl]-N-(3-phenoxyphenyl)-4-[(3S)-tetrahydro-2H-pyran-3-yl]pyrrolidin-3-amine], the Ki is at most 1 µM.

Take `Cn1cnc(S(=O)(=O)N2C[C@@H](NCc3ccc(Cl)cc3Cl)[C@H](c3ccccc3F)C2)c1` (relative stereo) [Example 282, trans-N-(2,4-dichlorobenzyl)-4-(2-fluorophenyl)-1-[(1-methyl-1H-imidazol-4-yl)sulfonyl]pyrrolidin-3-amine]: the Ki was at most 0.1 µM.

In the case of `Cn1cnc(S(=O)(=O)N2C[C@H](NCCCCC(C)(F)F)[C@@H](c3ccc(F)cc3)C2)c1` [Example 739, (3R,4S)-N-(5,5-difluorohexyl)-4-(4-fluorophenyl)-1-[(1-methyl-1H-imidazol-4-yl)sulfonyl]pyrrolidin-3-amine], the inhibition constant Ki was at most 0.1 µM.

Turning to `Cn1cnc(S(=O)(=O)N2C[C@H](NC(=O)NCc3ccccc3)[C@@H](c3ccc(F)cc3)C2)c1` [Example 742, 1-benzyl-3-{(3R,4S)-4-(4-fluorophenyl)-1-[(1-methyl-1H-imidazol-4-yl)sulfonyl]pyrrolidin-3-yl}urea], the Ki was at most 1 µM.

On to `NC(=O)c1ccccc1S(=O)(=O)N1C[C@@H](Nc2cc(C(F)(F)F)ccn2)[C@H](c2ccccc2)C1` (relative stereo) [Example 526, 2-{[trans-3-phenyl-4-{[4-(trifluoromethyl)pyridin-2-yl]amino}pyrrolidin-1-yl]sulfonyl}benzamide], for which the inhibition constant (Ki) is at most 10 µM.

Turning to `Cc1nc(C)c(S(=O)(=O)N2CC(Nc3ccc(F)c(F)c3)C(c3ccccc3)C2)s1` (stereo not shown) [Example 474, N-(3,4-difluorophenyl)-1-[(2,4-dimethyl-1,3-thiazol-5-yl)sulfonyl]-4-phenylpyrrolidin-3-amine], the Ki was at most 10 µM.

Consider `Cn1cnc(S(=O)(=O)N2CC(Nc3ccc(F)c(C(F)F)c3)C(c3ccc(F)cc3)C2)c1` (stereo not shown) [Example 310, N-[3-(difluoromethyl)-4-fluorophenyl]-4-(4-fluorophenyl)-1-[(1-methyl-1H-imidazol-4-yl)sulfonyl]pyrrolidin-3-amine], for which the inhibitory constant (Ki) is at most 0.1 µM.

Take `CC(=O)CCCC(=O)N[C@H]1CN(S(=O)(=O)c2cn(C)cn2)C[C@@H]1c1ccc(F)cc1` [Example 695, N-{(3R,4S)-4-(4-fluorophenyl)-1-[(1-methyl-1H-imidazol-4-yl)sulfonyl]pyrrolidin-3-yl}-5-oxohexanamide]: the Ki is at most 10 µM.

With `Cn1cnc(S(=O)(=O)N2C[C@H](Nc3cccc(-c4ccccn4)c3)[C@@H](c3ccc(F)cc3)C2)c1` [Example 801, (3R,4S)-4-(4-fluorophenyl)-1-[(1-methyl-1H-imidazol-4-yl)sulfonyl]-N-[3-(pyridin-2-yl)phenyl]pyrrolidin-3-amine], the Ki was at most 0.01 µM.

In the case of `CC(C)OCCCNC[C@@H]1CN(S(=O)(=O)c2cn(C)cn2)C[C@H]1c1ccc(F)cc1` (relative stereo) [Example 591, N-({trans-4-(4-fluorophenyl)-1-[(1-methyl-1H-imidazol-4-yl)sulfonyl]pyrrolidin-3-yl}methyl)-3-(propan-2-yloxy)propan-1-amine], the inhibition constant (Ki) was at most 10 µM.

For the compound `Cn1cnc(S(=O)(=O)N2C[C@H](Nc3cc(OCC4CCCN4)ncn3)[C@@H](c3ccc(F)cc3)C2)c1` (stereo partly drawn) [Example 780, N-{(3R,4S)-4-(4-fluorophenyl)-1-[(1-methyl-1H-imidazol-4-yl)sulfonyl]pyrrolidin-3-yl}-6-(pyrrolidin-2-ylmethoxy)pyrimidin-4-amine], the Ki was at most 10 µM.

For the compound `O=c1[nH]c2cc(S(=O)(=O)N3CC(Nc4ccc(F)c(F)c4)C(c4ccccc4)C3)ccc2o1` (stereo not shown) [Example 514, 5-({3-[(3,4-difluorophenyl)amino]-4-phenylpyrrolidin-1-yl}sulfonyl)-1,3-benzoxazol-2(3H)-one], the inhibition constant (Ki) is at most 10 µM.

For the compound `Cn1cnc(S(=O)(=O)N2C[C@H](NCC3CCC(C(F)(F)F)CC3)[C@@H](c3ccc(F)cc3)C2)c1` (stereo partly drawn) [Example 707, (3R,4S)-4-(4-fluorophenyl)-1-[(1-methyl-1H-imidazol-4-yl)sulfonyl]-N-{[4-(trifluoromethyl)cyclohexyl]methyl}pyrrolidin-3-amine], the inhibition constant Ki is at most 1 µM.

Regarding `Cn1cnc(S(=O)(=O)N2C[C@H](Nc3cccc(OCc4ccccc4)c3)[C@@H](c3ccccc3)C2)c1` [Example 773, (3R,4S)-N-[3-(benzyloxy)phenyl]-1-[(1-methyl-1H-imidazol-4-yl)sulfonyl]-4-phenylpyrrolidin-3-amine], the Ki was at most 0.1 µM.

On to `Cn1cnc(S(=O)(=O)N2C[C@H](NCC3CCOC3)[C@@H](c3ccccc3)C2)c1` (stereo partly drawn) [Example 447, (3R,4S)-1-[(1-methyl-1H-imidazol-4-yl)sulfonyl]-4-phenyl-N-(tetrahydrofuran-3-ylmethyl)pyrrolidin-3-amine], for which the Ki was at most 10 µM.

The assay is the same for the next values; noted with them: radioligand binding, recombinant CHO cell membranes expressing human GlyT1c.
`Cc1cc(N[C@@H]2CN(S(=O)(=O)c3cn(C)cn3)C[C@H]2C2CCCCO2)ccc1F` (relative stereo) [Example 847, Trans-N-(4-fluoro-3-methylphenyl)-1-[(1-methyl-1H-imidazol-4-yl)sulfonyl]-4-(tetrahydro-2H-pyran-2-yl)pyrrolidin-3-amine]: the Ki was at most 0.1 µM.

On to `Cc1cc(N[C@@H]2CN(S(=O)(=O)c3cn(C)cn3)C[C@H]2C2CCCCO2)ncc1F` (relative stereo) [Example 852, 5-Fluoro-4-methyl-N-[trans-1-[(1-methyl-1H-imidazol-4-yl)sulfonyl]-4-(tetrahydro-2H-pyran-2-yl)pyrrolidin-3-yl]pyridin-2-amine], for which the inhibition constant (Ki) was at most 1 µM.
